Data from ChEMBL document CHEMBL1697781, “Assessment of the health effects of chemicals in humans: II. Construction of an adverse effects database for QSAR modeling” (Curr Drug Discov Technol, 2004).

Experiments:
Conditions in all cases: human; call rule not given here
Hepatotoxicity [1] = assay: FDA HLAED, serum glutamic oxaloacetic transaminase (SGOT) increase
Hepatotoxicity [2] = assay: FDA HLAED, serum glutamic pyruvic transaminase (SGPT) increase
Hepatotoxicity [3] = assay: FDA HLAED, liver enzyme composite activity
Hepatotoxicity [4] = assay: FDA HLAED, alkaline phosphatase increase
Hepatotoxicity [5] = assay: FDA HLAED, lactate dehydrogenase (LDH) increase
Hepatotoxicity [6] = assay: FDA HLAED, gamma-glutamyl transferase (GGT) increase
For GGT Increase - Index Value in this document: reference of the scale not given here.
For LDH Increase - Index Value in this document: reference of the scale not given here.

Row | SMILES | SGOT Increase - Activity Score (Hepatotoxicity [1]) | SGOT Increase - Index Value (Hepatotoxicity [1]) | SGOT Increase - Number of Reports (Hepatotoxicity [1]) | SGPT Increase - Activity Score (Hepatotoxicity [2]) | SGPT Increase - Index Value (Hepatotoxicity [2]) | SGPT Increase - Number of Reports (Hepatotoxicity [2]) | Composite Activity - Active (Hepatotoxicity [3]) | Composite Activity - Marginal (Hepatotoxicity [3]) | Composite Activity - Score (Hepatotoxicity [3]) | Alkaline Phosphatase Increase - Activity Score (Hepatotoxicity [4]) | Alkaline Phosphatase Increase - Index Value (Hepatotoxicity [4]) | Alkaline Phosphatase Increase - Number of Reports (Hepatotoxicity [4]) | LDH Increase - Activity Score (Hepatotoxicity [5]) | LDH Increase - Index Value (Hepatotoxicity [5]) | LDH Increase - Number of Reports (Hepatotoxicity [5]) | GGT Increase - Activity Score (Hepatotoxicity [6]) | GGT Increase - Index Value (Hepatotoxicity [6]) | GGT Increase - Number of Reports (Hepatotoxicity [6]) | further results
1 | Cc1cc(CC(=O)O)n(C)c1C(=O)c1ccc(Cl)cc1 [ZOMEPIRAC] | Inactive | 1.1 | >= 4 | Inactive | 0.7 | >= 4 | 0 | 0 | Inactive | Inactive | 1.1 | >= 4 | Inactive | 0.7 | >= 4 | Inactive | 0 | < 4 | 
2 | Clc1ccc(CO/N=C(\Cn2ccnc2)c2ccc(Cl)cc2Cl)c(Cl)c1 [OXICONAZOLE] | Inactive | 0 | < 4 | Inactive | 0 | < 4 |  |  |  | Inactive | 0 | < 4 | Inactive | 0 | < 4 | Inactive | 0 | < 4 | Composite Activity - Active (Hepatotoxicity [3]; Liver): 0; Composite Activity - Marginal (Hepatotoxicity [3]; Liver): 0; Composite Activity - Score (Hepatotoxicity [3]; Liver): Inactive
3 | C=CCN1C[C@H](C(=O)N(CCCN(C)C)C(=O)NCC)C[C@@H]2c3cccc4[nH]cc(c34)C[C@H]21 [CABERGOLINE] | Inactive | 0 | < 4 | Inactive | 0 | < 4 | 0 | 0 | Inactive | Inactive | 0 | < 4 | Inactive | 0 | < 4 | Inactive | 0 | < 4 | 
4 | COc1ccc2cc([C@H](C)C(=O)O)ccc2c1 [NAPROXEN] | Inactive | 0.1 | >= 4 | Inactive | 0 | < 4 |  |  |  | Inactive | 0.1 | < 4 | Inactive | 0 | < 4 | Inactive | 0.1 | < 4 | Composite Activity - Active (Hepatotoxicity [3]; Liver): 0; Composite Activity - Marginal (Hepatotoxicity [3]; Liver): 0; Composite Activity - Score (Hepatotoxicity [3]; Liver): Inactive
5 | CNS(=O)(=O)Cc1ccc2[nH]cc(CCN(C)C)c2c1 | Inactive | 0.3 | >= 4 | Inactive | 0.3 | >= 4 | 0 | 0 | Inactive | Inactive | 0.1 | >= 4 | Inactive | 0.1 | >= 4 | Inactive | 0.1 | < 4 | 
6 | C=C1CC[C@@]2(O)[C@H]3Cc4ccc(O)c5c4[C@@]2(CCN3CC2CC2)[C@H]1O5 | Inactive | 0 | < 4 | Inactive | 0 | < 4 | 0 | 0 | Inactive | Inactive | 0 | < 4 | Inactive | 0 | < 4 | Inactive | 0 | < 4 | 
7 | CC(c1cc2ccccc2s1)N(O)C(N)=O (stereo unspecified) [ZILEUTON] | Active | 47.5 | >= 4 | Active | 65.3 | >= 4 | 3 | 0 | Active | Active | 29.7 | >= 4 | Inactive | 11.9 | < 4 | Inactive | 5.9 | < 4 | 
8 | O=C(O)C1=C(CSc2nnnn2CS(=O)(=O)O)CS[C@@H]2[C@H](NC(=O)[C@H](O)c3ccccc3)C(=O)N12 [CEFONICID] | Inactive | 0 | < 4 | Inactive | 0 | < 4 | 0 | 0 | Inactive | Inactive | 12.7 | < 4 | Inactive | 0 | < 4 | Inactive | 0 | < 4 | 
9 | Nc1cc(N2CCCCC2)nc(N)[n+]1[O-] [MINOXIDIL] | Inactive | 0.9 | >= 4 | Inactive | 1.1 | >= 4 | 0 | 0 | Inactive | Inactive | 0.7 | >= 4 | Inactive | 0 | < 4 | Inactive | 0.3 | < 4 | 
10 | CC(C)OC(=O)CCC/C=C\C[C@@H]1[C@@H](CC[C@@H](O)CCc2ccccc2)[C@H](O)C[C@@H]1O [LATANOPROST] | Inactive | 0.2 | < 4 | Inactive | 0 | < 4 | 0 | 0 | Inactive | Inactive | 0.2 | < 4 | Inactive | 0 | < 4 | Inactive | 0 | < 4 | 
11 | CC(=O)O[C@H]1C[C@@H]2CC[C@@H]3[C@H](CC[C@@]4(C)[C@H]3C[C@H](N3CC[N+](C)(C)CC3)[C@@H]4OC(C)=O)[C@@]2(C)C[C@@H]1N1CC[N+](C)(C)CC1.[Br-].[Br-] [PIPECURONIUM BROMIDE] | Inactive | 0 | < 4 | Inactive | 0 | < 4 | 0 | 0 | Inactive | Inactive | 0 | < 4 | Inactive | 0 | < 4 | Inactive | 0 | < 4 | 
12 | OCc1cc(C(O)CNCCCCCCOCCCCc2ccccc2)ccc1O (stereo unspecified) [SALMETEROL] | Inactive | 0.1 | < 4 | Inactive | 0.1 | < 4 | 0 | 0 | Inactive | Inactive | 0 | < 4 | Inactive | 0 | < 4 | Inactive | 0.1 | < 4 | 
